The source of these data is patent publication US8975398B2, “NAMPT inhibitors” (AbbVie Inc., priority 2012, dated 2015).

The target in one assay is NAMPT (Homo sapiens, UniProt P43490). Description: Time-Resolved Fluorescence Resonance Energy Transfer (TR-FRET) Binding Assay of NAMPT with PRPP. The note with it: 2 nM NAMPT, 2 nM probe, 200 uM PRPP and 2.5 mM ATP, equilibrated 16 hours. The protocol:
Time-Resolved Fluorescence Resonance Energy Transfer (TR-FRET) Binding Assay of NAMPT with PRPP
Compound handling and data processing were identical to the assay in the absence of substrates (above). Final concentrations were 1× assay buffer, 2% DMSO, 2 nM NAMPT, 2 nM probe, 1 nM Tb-anti-His antibody (Invitrogen #PV5895), 200 uM PRPP and 2.5 mM ATP. Reactions were equilibrated for 16 hours prior to measurement to allow for potential enzymatic modification of test compounds.
Background: Time-resolved FRET reads energy transfer from a long-lived donor to a nearby acceptor.

The target in assay [1] is NAMPT (human, recombinant, C-terminally His-tagged) (Homo sapiens, UniProt P43490). Description: Time-Resolved Fluorescence Resonance Energy Transfer (TR-FRET) Binding Assay of NAMPT. The conditions noted are these: 6.8 nM NAMPT, 200 nM probe, equilibrated 3 hours, absence of substrates. The method, then: Determination of the utility of compounds having Formula (I) as binders to and inhibitors of NAMPT was performed using Time-Resolved Fluorescence Resonance Energy Transfer (TR-FRET) binding assays.
Time-Resolved Fluorescence Resonance Energy Transfer (TR-FRET) Binding Assay of NAMPT
Test compounds were serially diluted (typically 11 half log dilutions) in neat DMSO to 50× final concentrations prior to dilution with assay buffer (50 mM HEPES (NaOH), pH 7.5, 100 mM NaCl, 10 mM MgCl2, 1 mM DTT, 1% Glycerol) to 3× and 6% DMSO. Six μL were transferred to 384-well low-volume plates (Owens Corning #3673). To this, 12 μL of a 1.5× solution containing enzyme, probe and antibody were added. Final concentrations in the 18 μL, reactions were 1× assay buffer, 2% DMSO, 6.8 nM NAMPT (human, recombinant, C-terminally His-tagged), 200 nM probe (a potent nicotinamide-competitive inhibitor conjugated to Oregon Green 488) and 1 nM Tb-anti-His antibody (Invitrogen #PV5895). Reactions were equilibrated at room temperature for 3 hours prior to reading on an Envision multi-label plate reader (Perkin Elmer; Ex=337 nm, Em=520 and 495 nm). Time-resolved FRET ratios (Em520/Em495) were normalized to controls, plotted as a function of compound concentration and fit with the four-parameter logistic equation to determine IC50s.

SMILES strings stand for the structures.

Sequence of NAMPT (P43490 whole entry): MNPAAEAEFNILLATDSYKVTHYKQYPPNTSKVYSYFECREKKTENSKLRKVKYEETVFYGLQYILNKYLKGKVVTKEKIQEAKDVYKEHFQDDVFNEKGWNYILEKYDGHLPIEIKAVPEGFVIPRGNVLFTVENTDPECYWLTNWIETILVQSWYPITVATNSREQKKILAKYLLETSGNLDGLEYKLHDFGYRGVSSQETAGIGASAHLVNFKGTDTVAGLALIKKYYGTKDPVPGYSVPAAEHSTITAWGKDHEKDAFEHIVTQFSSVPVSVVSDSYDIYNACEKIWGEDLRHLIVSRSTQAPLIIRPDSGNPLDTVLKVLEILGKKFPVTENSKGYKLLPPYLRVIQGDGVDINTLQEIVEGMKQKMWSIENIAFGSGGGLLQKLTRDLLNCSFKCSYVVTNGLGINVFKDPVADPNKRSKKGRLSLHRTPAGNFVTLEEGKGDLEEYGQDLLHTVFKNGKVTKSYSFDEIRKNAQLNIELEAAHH
Sequence of NAMPT (human, recombinant, C-terminally His-tagged) (P43490 whole entry): as above

Take `O=C(Nc1ccc(OC2CCN(C(=O)C3CCCC3)CC2)cc1)C1CN(c2cccnc2)C1` [Example 52, N-(4-{[1-(cyclopentylcarbonyl)piperidin-4-yl]oxy}phenyl)-1-(pyridin-3-yl)azetidine-3-carboxamide]: the IC50 (in general, the point on the concentration scale where inhibition reaches its midpoint) at NAMPT is 0.696 nM; in assay [1], 51 nM.

As for `CC1(C(=O)N2CCC(Oc3ccc(NC(=O)C4CN(c5cccnc5)C4)cc3)CC2)CCCCC1` [Example 53, N-[4-({1-[(1-methylcyclohexyl)carbonyl]piperidin-4-yl}oxy)phenyl]-1-(pyridin-3-yl)azetidine-3-carboxamide], the IC50 at NAMPT is 0.689 nM; in assay [1], 25.6 nM.

Regarding `O=C(Nc1ccc(OC2CCN(C(=O)c3ccoc3)CC2)cc1)C1CN(c2cccnc2)C1` [Example 54, N-(4-{[1-(furan-3-ylcarbonyl)piperidin-4-yl]oxy}phenyl)-1-(pyridin-3-yl)azetidine-3-carboxamide], the half-inhibitory concentration (IC50) was 0.806 nM at NAMPT and 72.1 nM in assay [1].

As to `O=C(Nc1ccc(OC2CCN(C(=O)CC(F)(F)F)CC2)cc1)C1CN(c2cccnc2)C1` [Example 55, 1-(pyridin-3-yl)-N-(4-{[1-(3,3,3-trifluoropropanoyl)piperidin-4-yl]oxy}phenyl)azetidine-3-carboxamide], the IC50 on NAMPT came to 2.22 nM; in assay [1], 168 nM.

Regarding `CC(=O)N1CCC(Oc2ccc(NC(=O)C3CN(c4cccnc4)C3)cc2)CC1` [Example 56, N-{4-[(1-acetylpiperidin-4-yl)oxy]phenyl}-1-(pyridin-3-yl)azetidine-3-carboxamide], the IC50 on NAMPT was determined as 0.812 nM; in assay [1], 360 nM.

As to `COCC(=O)N1CCC(Oc2ccc(NC(=O)C3CN(c4cccnc4)C3)cc2)CC1` [Example 57, N-(4-{[1-(methoxyacetyl)piperidin-4-yl]oxy}phenyl)-1-(pyridin-3-yl)azetidine-3-carboxamide], the IC50 worked out at 1.07 nM at NAMPT and 180 nM in assay [1].

As to `O=C(Nc1ccc(OC2CCN(C(=O)c3ccsc3)CC2)cc1)C1CN(c2cccnc2)C1` [Example 58, 1-(pyridin-3-yl)-N-(4-{[1-(thiophen-3-ylcarbonyl)piperidin-4-yl]oxy}phenyl)azetidine-3-carboxamide], the half-inhibitory concentration (IC50) was determined as 0.683 nM on NAMPT and 59.5 nM in assay [1].

`Cc1ccsc1C(=O)N1CCC(Oc2ccc(NC(=O)C3CN(c4cccnc4)C3)cc2)CC1` [Example 59, N-[4-({1-[(3-methylthiophen-2-yl)carbonyl]piperidin-4-yl}oxy)phenyl]-1-(pyridin-3-yl)azetidine-3-carboxamide]: the results for the 50% inhibitory concentration (IC50) (on NAMPT; in assay [1]) were 0.606 nM and 27.9 nM, respectively.

Regarding `O=C(Nc1ccc(OC2CCN(C(=O)CN3CCOCC3)CC2)cc1)C1CN(c2cccnc2)C1` [Example 60, N-(4-{[1-(morpholin-4-ylacetyl)piperidin-4-yl]oxy}phenyl)-1-(pyridin-3-yl)azetidine-3-carboxamide], the IC50 at NAMPT stood at 1.01 nM; in assay [1] it was 150 nM.

On to `O=C(Nc1ccc(OC2CCN(C(=O)c3cccs3)CC2)cc1)C1CN(c2cccnc2)C1` [Example 61, 1-(pyridin-3-yl)-N-(4-{[1-(thiophen-2-ylcarbonyl)piperidin-4-yl]oxy}phenyl)azetidine-3-carboxamide], for which the results for the IC50 (at NAMPT; in assay [1]) were 0.675 nM and 33.7 nM, respectively.

On to `Cc1ccc(C(=O)N2CCC(Oc3ccc(NC(=O)C4CN(c5cccnc5)C4)cc3)CC2)s1` [Example 62, N-[4-({1-[(5-methylthiophen-2-yl)carbonyl]piperidin-4-yl}oxy)phenyl]-1-(pyridin-3-yl)azetidine-3-carboxamide], for which the IC50 turned out to be 0.666 nM on NAMPT and 41.6 nM in assay [1].

Take `O=C(Nc1ccc(OC2CCN(C(=O)c3ccco3)CC2)cc1)C1CN(c2cccnc2)C1` [Example 63, N-(4-{[1-(furan-2-ylcarbonyl)piperidin-4-yl]oxy}phenyl)-1-(pyridin-3-yl)azetidine-3-carboxamide]: the results for the IC50 (at NAMPT; in assay [1]) were 0.514 nM and 52.7 nM, respectively.

Take `Cn1cccc1C(=O)N1CCC(Oc2ccc(NC(=O)C3CN(c4cccnc4)C3)cc2)CC1` [Example 64, N-[4-({1-[(1-methyl-1H-pyrrol-2-yl)carbonyl]piperidin-4-yl}oxy)phenyl]-1-(pyridin-3-yl)azetidine-3-carboxamide]: the IC50 at NAMPT was 0.927 nM; in assay [1] it was 55.2 nM.

Turning to `CCC(=O)N1CCC(Oc2ccc(NC(=O)C3CN(c4cccnc4)C3)cc2)CC1` [Example 65, N-{4-[(1-propanoylpiperidin-4-yl)oxy]phenyl}-1-(pyridin-3-yl)azetidine-3-carboxamide], the half-inhibitory concentration (IC50) at NAMPT is 0.704 nM; in assay [1] it was 121 nM.

Regarding `CC1(C(=O)N2CCC(Oc3ccc(NC(=O)C4CN(c5cccnc5)C4)cc3)CC2)CC1` [Example 66, N-[4-({1-[(1-methylcyclopropyl)carbonyl]piperidin-4-yl}oxy)phenyl]-1-(pyridin-3-yl)azetidine-3-carboxamide], the IC50 came to 0.535 nM on NAMPT and 56.6 nM in assay [1].

Take `CN(C)CCC(=O)N1CCC(Oc2ccc(NC(=O)C3CN(c4cccnc4)C3)cc2)CC1` [Example 67, N-(4-{[1-(N,N-dimethyl-beta-alanyl)piperidin-4-yl]oxy}phenyl)-1-(pyridin-3-yl)azetidine-3-carboxamide]: the IC50 on NAMPT was found to be 0.497 nM; in assay [1] it was 452 nM.

On to `O=C(Nc1ccc(OC2CCN(C(=O)c3nccs3)CC2)cc1)C1CN(c2cccnc2)C1` [Example 68, 1-(pyridin-3-yl)-N-(4-{[1-(1,3-thiazol-2-ylcarbonyl)piperidin-4-yl]oxy}phenyl)azetidine-3-carboxamide], for which the IC50 at NAMPT stood at 0.569 nM; in assay [1], 80.6 nM.

`O=C(Nc1ccc(OC2CCN(C(=O)CC3CCCC3)CC2)cc1)C1CN(c2cccnc2)C1` [Example 69, N-(4-{[1-(cyclopentylacetyl)piperidin-4-yl]oxy}phenyl)-1-(pyridin-3-yl)azetidine-3-carboxamide]: the IC50 at NAMPT was 0.918 nM; in assay [1], 68.6 nM.

On to `CC(C)C(C)C(=O)N1CCC(Oc2ccc(NC(=O)C3CN(c4cccnc4)C3)cc2)CC1` (stereo not shown) [Example 70, N-(4-{[1-(2,3-dimethylbutanoyl)piperidin-4-yl]oxy}phenyl)-1-(pyridin-3-yl)azetidine-3-carboxamide], for which the 50% inhibitory concentration (IC50) stood at 0.742 nM on NAMPT and 35.7 nM in assay [1].

For the molecule `Cc1ncccc1N1CC(C(=O)Nc2ccc(C3CCN(C(=O)C(C)(C)O)CC3)cc2)C1` [Example 71, N-{4-[1-(2-hydroxy-2-methylpropanoyl)piperidin-4-yl]phenyl}-1-(2-methylpyridin-3-yl)azetidine-3-carboxamide], the IC50 at NAMPT was 14.6 nM; in assay [1] it was 41.2 nM.

In the case of `Cc1ccncc1N1CC(C(=O)Nc2ccc(C3CCN(C(=O)C(C)(C)O)CC3)cc2)C1` [Example 72, N-{4-[1-(2-hydroxy-2-methylpropanoyl)piperidin-4-yl]phenyl}-1-(4-methylpyridin-3-yl)azetidine-3-carboxamide], the IC50 at NAMPT is 7.34 nM; in assay [1] it was 6.54 nM.

Turning to `COc1ncccc1N1CC(C(=O)Nc2ccc(C3CCN(C(=O)C(C)(C)O)CC3)cc2)C1` [Example 73, N-{4-[1-(2-hydroxy-2-methylpropanoyl)piperidin-4-yl]phenyl}-1-(2-methoxypyridin-3-yl)azetidine-3-carboxamide], the values for the IC50 (at NAMPT; in assay [1]) were 71.1 nM and 224 nM, respectively.

Regarding `O=C(Nc1ccc(OC2CCN(CC3CC3)CC2)cc1)C1CN(c2cccnc2)C1` [Example 74, N-(4-{[1-(cyclopropylmethyl)piperidin-4-yl]oxy}phenyl)-1-(pyridin-3-yl)azetidine-3-carboxamide], the figures for the IC50 (on NAMPT; in assay [1]) were 0.666 nM and 911 nM, respectively.

On to `CCCC(C)CN1CCC(Oc2ccc(NC(=O)C3CN(c4cccnc4)C3)cc2)CC1` (stereo not shown) [Example 75, N-(4-{[1-(2-methylpentyl)piperidin-4-yl]oxy}phenyl)-1-(pyridin-3-yl)azetidine-3-carboxamide], for which the IC50 at NAMPT came out at 0.719 nM; in assay [1], 1340 nM.

Consider `CC(C)CN1CCC(Oc2ccc(NC(=O)C3CN(c4cccnc4)C3)cc2)CC1` [Example 76, N-(4-{[1-(2-methylpropyl)piperidin-4-yl]oxy}phenyl)-1-(pyridin-3-yl)azetidine-3-carboxamide], for which the IC50 stood at 0.44 nM on NAMPT and 1920 nM in assay [1].

`CC(C)CCN1CCC(Oc2ccc(NC(=O)C3CN(c4cccnc4)C3)cc2)CC1` [Example 77, N-(4-{[1-(3-methylbutyl)piperidin-4-yl]oxy}phenyl)-1-(pyridin-3-yl)azetidine-3-carboxamide]: the IC50 at NAMPT turned out to be 0.832 nM; in assay [1], 3010 nM.
